In brackets after ≈: the same amount, converted by molar mass. Entries after “also recorded” stand apart in the source; their conditions may differ.
Tests used:
[1] = system: Ca Ski (cervical cancer); experiment: cells; assay type: cell-based; settings: for IC50: Homo sapiens, Ca-Ski, MTT, 72 h, mean ± SD of three replicates; for IC50 / SI (selectivity index) Ca Ski: isolated compounds; for SI (selectivity index) Ca Ski: IC50 HUVEC / IC50 Ca Ski
Description: (§1) The human cell lines MCF-7 (breast cancer), Ca Ski (cervical cancer), and HT-29 (colon cancer) were cultured as monolayer in RPMI 1640 growth media. HUVEC (human umbilical vein endothelial cells) and PC-3 (prostate cancer) cells were cultured in DMEM. All cells were purchased from the American Tissue Culture Collection (ATCC, USA) except for human umbilical vein endothelial cells (HUVEC) which were obtained from ScienCell Research Laboratories (Carlsbad, CA). All the media were supplemented with 10% v/v foetal bovine serum (FBS), 100 μg/mL penicillin/streptomycin, and 50 μg/mL amphotericin B. The cells were cultured in a 5% CO2 incubator at 37°C.
(§2) Cell viability was investigated using 3-(4, 5-dimethylthiazol-2-yl)-2, 5-diphenyltetrazolium bromide (MTT) assay. Cells were detached from the […] tissue culture flask when it achieved 80% confluency. The detached cells were pellet by centrifugation (1,000 rpm; 5 minutes). Cells (3.0 × 10^4 cells/mL) were seeded onto a 96-well microtiter plate (Nunc). The cells were incubated at 37°C CO2 incubator for 24 h to give adherent cells. The test compounds (1–100 μg/mL) were added onto the 96-well microtiter plate containing adherent cells. The untreated cells were incubated in 10% media containing 0.5% DMSO (without addition of any test compounds/extracts). This mixture was regarded as the negative control whereas doxorubicin as the positive control. The plates were incubated for 72 h at 37°C in a 5% CO2 incubator. After 72 h, the media were removed and 100 μL of fresh medium and 20 μL of MTT (Sigma, filter sterile, 5 mg/mL) were added to each well and further incubated for 4 hours (37°C) after which the media were substituted with 150 μL DMSO. The 96-well microtiter plates were then agitated at room temperature onto an incubator shaker to dissolve the formazan crystals. The absorbance (A) of the content of the plates was measured at 540 nm using a microplate reader. The percentage of inhibition of each test sample was calculated according to the following formula: Percentage of inhibition (%) = (A control − A sample)/A control × 100%. The average of three replicates was then obtained. The IC50 for each extract was extrapolated from the graphs of the percentage inhibition versus concentration of test agents. Cytotoxicity of each test agent is expressed as IC50 value. The IC50 value is the concentration of test agents that cause 50% inhibition or cell death, averaged from the three experiments. The selectivity index (SI) was also calculated as described by using the ratio between IC50 of the extract or compounds on normal cell lines (HUVEC) and IC50 of the tested extract or compounds on cancerous cell lines. Selectivity index (SI) values equal or greater than three were considered to have a high selectivity towards cancerous cells. An SI value denotes the selectivity of the sample to the tested cell lines.

[2] = system: HUVEC (human umbilical vein endothelial cells); experiment: cells; assay type: cell-based; settings: for IC50: Homo sapiens, HUVEC, isolated compounds, MTT, 72 h, normal cells; for toxicity towards normal cells HUVEC (in words): MTT assay
Description: as §1, §2

[3] = system: MCF-7 (breast cancer); experiment: cells; assay type: cell-based; settings: for IC50: Homo sapiens, MCF7, MTT, 72 h, mean ± SD of three replicates; for IC50 / SI (selectivity index) MCF-7: isolated compounds; for antiproliferative/cytotoxic activity against MCF-7 (in words): MTT assay; for SI (selectivity index) MCF-7: IC50 HUVEC / IC50 MCF-7
Description: as §1, §2

[4] = system: PC-3 (prostate cancer); experiment: MTT cytotoxicity assay, PC-3; assay type: cell-based; settings: for IC50: Homo sapiens, MTT, 72 h, mean ± SD of three replicates; for IC50 / SI (selectivity index) PC-3: isolated compounds; for SI (selectivity index) PC-3: IC50 HUVEC / IC50 PC-3; for antiproliferative/cytotoxic activity against PC-3 (in words): MTT assay
Description: as §1, §2

[5] = system: HT-29 (colon cancer); experiment: MTT cytotoxicity assay, HT-29; assay type: cell-based; settings: for IC50: Homo sapiens, HT-29, MTT, 72 h, mean ± SD of three replicates; for IC50 / SI (selectivity index) HT-29: isolated compounds; for SI (selectivity index) HT-29: IC50 HUVEC / IC50 HT-29; for antiproliferative/cytotoxic activity against HT-29 (in words): MTT assay
Description: as §1, §2

[6] = system: MCF-7 cells; experiment: Phase contrast microscopy of treated MCF-7 cells; assay type: cell-based, human; settings: 48 h; 12.5 and 25 µg/mL; inverted phase contrast microscope 400x
Description: Briefly, MCF-7 cells (5 × 10^5) were grown in a tissue culture dishes (60 mm) for overnight. Then, the cells were treated with curcumenone (3) and curcumenol (5) at a concentration of 12.5 and 25 μg/mL, respectively. After 48 hours, cells were gently rinsed with PBS. The observation of morphological changes of apoptotic MCF-7 cells after treatment with the two bioactive compounds was viewed using an inverted phase contrast microscope (Leica DMI 3000B, Germany) at 400x magnification according to the method.

[7] = system: MCF-7 cells; experiment: Hoechst 33342/PI double staining, fluorescence microscopy; assay type: cell-based, human; settings: 48 h, 12.5 and 25 μg/mL
Description: The morphological features of MCF-7 cells upon treatment by the test compounds also observed by double staining of Hoechst 33342/PI assay using the inverted fluorescence microscope (Leica, DM16000B). Briefly, 5 × 10^5 cells were grown overnight and treated with 12.5 and 25 μg/mL of curcumenone (3) and curcumenol (5). After treatment of cells with the test compounds for 48 hours, both floating and adherent cells were collected by centrifugation and washed once with cold PBS. Then, Hoechst 33342 solutions (10 μg/mL) were added and incubated at 37°C for 7 minutes. The cells were then stained with PI (2.5 μg/mL) and further incubated in the dark for 15 minutes. Cell suspension (100 μL) was mounted onto glass microscope slides and observed under fluorescence microscope using UV/488 dual excitation (460 nm emission of Hoechst 33342, 575 nm emission of PI). Approximately a total of 200 target cells were calculated and the morphological characteristics of the nuclei were analyzed for quantification of apoptosis and necrosis. The percentage of apoptotic, necrotic, and dead cells was determined according to the formula described by.

[8] = parameters: method as in PMID 23160092; settings: cited from earlier work
[9] = system: liver alcohol dehydrogenase; parameters: method as in PMID 23160092; settings: cited from earlier work
[10] = parameters: method as in PMID 9871681; settings: cited from earlier work
[11] = system: P450; parameters: method as in PMID 20148399; settings: time- and NADPH-dependent inhibitions; cited from earlier work
[12] = parameters: method as in PMID 19043244; settings: isolated from the rhizomes of Curcuma zedoaria; cited from earlier work

SMILES: CC(=O)CC[C@@H]1[C@H]2CC(=C(C)C)C(=O)C[C@@]12C [Compound 3, curcumenone]
- IC50 [1]: > 100 µg/mL
- antiproliferative/cytotoxic activity against Ca Ski (in words) ([1]; MTT assay): did not show any antiproliferative activity
- SI (selectivity index) Ca Ski [1]: 0.5
- IC50 [2]: 50 ± 8.6 µg/mL (≈ 213 µM)
- toxicity towards normal cells HUVEC (in words) [2]: slight toxicity
- toxicity towards normal cells HUVEC (in words) ([2]; listed as curcumenone): low toxicity
- IC50 [3]: 8.3 ± 1 µg/mL (≈ 35.4 µM)
- antiproliferative/cytotoxic activity against MCF-7 (in words) [3]: strong antiproliferative activity
- SI (selectivity index) MCF-7 [3]: 6.0
- IC50 [4]: 39.8 ± 4.2 µg/mL (≈ 170 µM)
- SI (selectivity index) PC-3 [4]: 1.3
- IC50 [5]: 43.3 ± 6.2 µg/mL (≈ 185 µM)
- SI (selectivity index) HT-29 [5]: 1.2
- morphological changes of MCF-7 cells [6]: cell shrinkage, loss of contact with adjacent cells, and decrease in cell numbers
- apoptosis induction [7]: induction of apoptotic death occurred
- effect on alcohol-treated mice [8]: protective effect
- effect on liver alcohol dehydrogenase activity [9]: acceleration of liver alcohol dehydrogenase activity
- effect on D-galactosamine/lipopolysaccharide-induced acute liver injury [10]: effective protective effect

SMILES: CC1=C[C@]2(O)O[C@@]3(CC2=C(C)C)[C@@H](C)CC[C@@H]13 [Compound 5, curcumenol]
- IC50 [1]: 18.5 ± 1 µg/mL (≈ 78.9 µM)
- SI (selectivity index) Ca Ski [1]: 1.4
- IC50 [2]: 25.9 ± 1.4 µg/mL (≈ 111 µM)
- toxicity towards normal cells HUVEC (in words) [2]: low toxicity
- IC50 [3]: 9.3 ± 0.3 µg/mL (≈ 39.7 µM)
- antiproliferative/cytotoxic activity against MCF-7 (in words) [3]: strong antiproliferative activity
- SI (selectivity index) MCF-7 [3]: 2.8
- IC50 [4]: 17.3 ± 1.2 µg/mL (≈ 73.8 µM)
- antiproliferative/cytotoxic activity against PC-3 (in words) [4]: moderate inhibitory activity
- SI (selectivity index) PC-3 [4]: 1.5
- IC50 [5]: 24.8 ± 2.7 µg/mL (≈ 106 µM)
- antiproliferative/cytotoxic activity against HT-29 (in words) [5]: moderate inhibitory activity
- SI (selectivity index) HT-29 [5]: 1.0
- morphological changes of MCF-7 cells [6]: cell shrinkage, loss of contact with adjacent cells, and decrease in cell numbers
- apoptosis induction [7]: induction of apoptotic death occurred; also recorded: better inducing apoptosis capacity in comparison to curcumenone (3)
- mechanism-based P450 inhibition [11]: not a mechanism-based inhibitor

SMILES: C/C1=C\CC[C@@]2(C)O[C@@H]2CC(C)(C)/C=C/C1=O [Compound 8, zerumbone epoxide]
- IC50 [1]: 34.5 ± 0.6 µg/mL (≈ 147 µM)
- SI (selectivity index) Ca Ski [1]: 0.4
- IC50 [2]: 14.2 ± 1.1 µg/mL (≈ 60.6 µM)
- toxicity towards normal cells HUVEC (in words) [2]: slight toxicity
- IC50 [3]: 24.1 ± 0.1 µg/mL (≈ 103 µM)
- SI (selectivity index) MCF-7 [3]: 0.6
- IC50 [4]: 10.8 ± 1.9 µg/mL (≈ 46.1 µM)
- antiproliferative/cytotoxic activity against PC-3 (in words) [4]: good cytotoxic effect
- SI (selectivity index) PC-3 [4]: 1.3
- IC50 [5]: 13.7 ± 2.7 µg/mL (≈ 58.5 µM)
- antiproliferative/cytotoxic activity against HT-29 (in words) [5]: good cytotoxic effect
- SI (selectivity index) HT-29 [5]: 1.0
- cytotoxic effects [12]: possessed cytotoxic effects
